Values quoted from earlier work in patent EP0502666B2, “Ingestible compositions containing water-soluble, high-viscosity grade cellulose ethers” (THE UNIVERSITY OF MICHIGAN, priority 1991, dated 1992).

CN(C)C(=N)N=C(N)N [metformin]
patients with side effects that lead to the withdrawal of the drug (in vivo): ~5%
patients with gastrointestinal side effects, initially (usually transient): 5-20%
